The values that follow come from US10195181B2, “Carboxamide derivatives” (Novartis AG, priority 2014, dated 2019).

As a reminder, the IC50 is the concentration that gives 50% inhibition. Lower therefore signals inhibition by little substance.

The target of the experiment is Smurf-1 (Homo sapiens (Human), UniProt Q9HCE7). The experiment can be described thus: HECT E3 ligase autoubiquitinylation TR-FRET assay (Smurf-1). The class given is biochemical. From the text: To determine the HECT E3 ligase selectivity of the compounds, a panel of biochemical HECT E3 ligase autoubiquitinylation assays was employed (Smurf-1, Smurf-2, WWP1, WWP2, ITCH, Nedd4, Nedd4L and E6AP). The conjugation of ubiquitin to a protein substrate is a multistep process. In an initial ATP-requiring step, a thioester bond is formed between the carboxyl terminus of ubiquitin and an internal cystein residue of the ubiquitin-activating enzyme (E1). Activated ubiquitin is then transferred to a specific cystein residue of an ubiquitin-conjugating enzyme (E2). E2s donate ubiquitin to a HECT E3 ligase (E3) from which it is transferred to the substrate protein. HECT E3 ligases can auto-ubiquitinylate. This event is detected in the TR-FRET (Time-Resolved Fluorescence Resonance Energy Transfer) assay used in this panel. […] When these two fluorophores are brought together by a biomolecular interaction (in this case ubiquitinylation of the E3 ligase), a portion of the energy captured by the Cryptate during excitation is released through fluorescence emission at 620 nm, while the remaining energy is transferred to XL665. This energy is then released by XL665 as specific fluorescence at 665 nm. […]
Smurf-1, sequence (Q9HCE7 whole entry): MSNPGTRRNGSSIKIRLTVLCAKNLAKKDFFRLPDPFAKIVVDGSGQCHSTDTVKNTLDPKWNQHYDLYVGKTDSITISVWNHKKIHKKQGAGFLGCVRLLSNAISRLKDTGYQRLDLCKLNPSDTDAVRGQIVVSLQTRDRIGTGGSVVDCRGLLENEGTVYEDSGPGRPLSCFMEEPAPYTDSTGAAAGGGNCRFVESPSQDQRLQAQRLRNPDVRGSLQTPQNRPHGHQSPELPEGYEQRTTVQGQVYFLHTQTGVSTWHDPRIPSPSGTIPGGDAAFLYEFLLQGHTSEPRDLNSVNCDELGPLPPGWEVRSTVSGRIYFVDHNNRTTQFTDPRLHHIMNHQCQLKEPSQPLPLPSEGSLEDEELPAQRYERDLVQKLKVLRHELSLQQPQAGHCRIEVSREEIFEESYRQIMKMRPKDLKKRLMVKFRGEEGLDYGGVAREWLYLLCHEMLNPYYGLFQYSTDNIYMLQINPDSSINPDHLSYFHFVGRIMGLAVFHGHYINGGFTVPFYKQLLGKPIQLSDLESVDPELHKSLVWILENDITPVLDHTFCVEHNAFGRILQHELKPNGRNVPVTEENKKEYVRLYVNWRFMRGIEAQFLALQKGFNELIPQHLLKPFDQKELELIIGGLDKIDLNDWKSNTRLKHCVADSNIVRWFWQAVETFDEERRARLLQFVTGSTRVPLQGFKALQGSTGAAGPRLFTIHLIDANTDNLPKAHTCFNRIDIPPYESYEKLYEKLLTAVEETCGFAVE
After an incubation time of 45 min in the dark, the plates are transferred into the Pherastar fluorescence reader to measure the TR-FRET signal.
(In general: In TR-FRET formats the signal depends on donor and acceptor labels being close together.)

Turning to `Cc1c(C(=O)Nc2c(C)n(C)n(C(C)C)c2=O)noc1[C@@H]1CCC[C@H](C(C)(C)C)O1` (mixture of isomers) [Example 17, 5-((2R,6S)-6-(tert-butyl)tetrahydro-2H-pyran-2-yl)-N-(2-isopropyl-1,5-dimethyl-3-oxo-2,3-dihydro-1H-pyrazol-4-yl)-4-methylisoxazole-3-carboxamide and 5-((2S,6R)-6-(tert-butyl)tetrahydro-2H-pyran-2-yl)-N-(2-isopropyl-1,5-dimethyl-3-oxo-2,3-dihydro-1H-pyrazol-4-yl)-4-methylisoxazole-3-carboxamide], inhibition was half-maximal at 0.98 µM (IC50).
